Measurements as given in publication PMC12308784, “Organometallic Half-Sandwich Complexes of 1,10-Phenanthroline Derivatives with Improved Solubility, Albumin-Binding, and Nanoformulation Potential Targeting Drug Resistance in Cancer” (Inorganic Chemistry, 2025).
Values joined by “and” are separate entries in the source; they are usually repeats but may differ in a detail not shown here. Equal entries are not always repeated. Where two headings read alike, the source gives them in different places.

Legend:
MES-SA/Dx5-eGFP = assay: fluorescent triple coculture cytotoxicity assay; format: cell-based, human; conditions: for SR (MES-SA/Dx5): selectivity ratio versus parental MES-SA
Excerpt: (§1) Cytotoxicity of the compounds were further tested also in an in vitro MDR model system, consisting of an MES-SA uterine sarcoma cell line, and its P-gp (ABCB1) overexpressing variants MES-SA/B1, that was genetically engineered to express P-gp, and MES-SA/Dx5, which acquired a P-gp-mediated MDR phenotype due to selection in doxorubicin. , The expression of different fluorescent proteins in each line (mCherry, mOrange, or eGFP) allowed coculturing of these three cell lines, providing more relevant data compared to monocultures, as the interaction between parental and resistant phenotypes is reflected in cytotoxicity.
(§2) Cytotoxicity of nanoformulated [RhCp*(BP)-Cl]-Cl with cross-linked HSA and HTP carriers was tested against the previously introduced triple coculture of fluorescent MES-SA cells with a slight difference. Namely, the media containing the dissolved products were removed from the wells, and fresh media was added prior to the measurement as the presence of cross-linked HSA and HTP formulations interfered with the fluorescence of the cells.
(§3) MDA-MB-231 breast adenocarcinoma and MCF-7 and T-47D invasive breast carcinomas were purchased from the Developmental Therapeutic Program of the National Cancer Institute (NIH, USA), and they were cultured in RPMI medium (Thermo Fisher). MES–SA and MES–SA/Dx5 uterine sarcoma cell lines were purchased from American Type Culture Collection and were kept in DMEM (Thermo Fisher). MES–SA/B1 was created by the transfection of the human MDR1 gene in MES–SA, and MES–SA mCherry, MES–SA/B1 mOrange, and MES–SA/Dx5 eGFP were engineered to stably express the respective fluorescent proteins, as described previously. Culture media were supplemented with 10% fetal bovine serum, 2 mM L-glutamine, 100 units/mL penicillin, and 100 μg/mL streptomycin (Thermo Fisher). Cells were kept at 37 °C under 5% CO2 and were negative for mycoplasma infection.
(§4) Cytotoxicity of the nonfluorescent cancer cells (MDA-MB-231, MCF-7, T-47D) were assessed with PrestoBlue cell viability reagent (Thermo Fisher). Briefly, 2500 cells/well were seeded on 384-well plates, and then the next day drugs were added. After 72 h incubation, PrestoBlue was added in a 10% final concentration, and after an hour of additional incubation, plates were measured with a PerkinElmer EnSpire plate reader at 555 nm/585 nm excitation/emission wavelengths. […] Drugs were added the following day, and the intensity of the fluorescent proteins were measured after 144 h incubation at the respective fluorescent channels (excitation/emission: eGFP: 485 nm/510 nm; mCherry: 585 nm/610 nm; mOrange: 545 nm/567 nm). pIC50 values were calculated by a custom program written by Judit Sessler in C#. IC50 values and standard deviation were calculated from average pIC50 values from at least 3 independent measurements. Since the IC50 values were obtained through nonlinear regression fitting of the viability vs. log(concentration) data, the resulting confidence intervals are inherently asymmetric (see pIC50 values and their corresponding SD in Tables S5 and S6).

MES-SA mCherry = assay: fluorescent triple coculture cytotoxicity assay; format: cell-based, human
Excerpt: as §1, §2, §3, §4

MES-SA/B1-mOrange = assay: fluorescent triple coculture cytotoxicity assay; format: cell-based, human; conditions: for SR (MES-SA/B1): selectivity ratio versus parental MES-SA
Excerpt: as §1, §2, §3, §4

[1] = H2O/Cl– co-ligand exchange constant by UV–vis spectrophotometry; format: physicochemical; conditions: pH = 6.0, 20 mM phosphate buffer; t = 25 °C
Method: The coordinated chlorido ligand can undergo spontaneous partial exchange upon dissolution, making it essential to determine the equilibrium constant for the [M(η^6-arene/η^5-arenyl)(ligand)-Cl]^+ + H2O ⇌ [M(η^6-arene/η^5-arenyl)(ligand)(H2O)]^2+ + Cl^– process (or for the reverse direction) to evaluate the ratio of chlorido to aqua complexes. The logK′ (H2O/Cl^–) constants were determined by UV–vis spectrophotometry (Figure ) due to the changes in the charge transfer bands. […] Importantly, this process is slow for the RuCym complexes, which requires a longer time to reach equilibrium, necessitating careful equilibration in experimental setups before further analysis. Therefore, in the case of the RuCym complexes, individual samples were prepared and their spectra were measured after 1 h, while the spectra for the RhCp* complexes were obtained by direct titration with the KCl solution. The appearance of isosbestic points in the spectra confirms the clear equilibrium between chlorido- and aqua complexes.
4 (a) Changes in the UV–vis spectra of complex RuCymBP due to the H2O/Cl^– coligand exchange process, (b) with absorbance variation at 357 nm plotted as a function of the chloride concentration (○) with the fitted curve (dashed line). Individual samples were prepared and the spectra were recorded after 1 h waiting time. {c complex = 28 μM; c Cl– = 56 μM – 0.29 M; t = 25 °C; pH = 6.0 (20 mM phosphate buffer)}.
An Agilent Cary 8454 diode array spectrophotometer was utilized to obtain UV–vis spectra in the wavelength range 190–1100 nm; the path length was 1 cm. The concentrations of the complexes were between 20 and 100 μM. The actual pH of the samples were measured with an Orion 710A pH-meter equipped with a Metrohm combined electrode (type 6.0234.100) and the pH titrations were performed by a KOH solution using a Metrohm 665 Dosimat buret at 25.0 °C. […] The computer program HypSpec was used to calculate the equilibrium constants.

[2] = Homo sapiens, MES-SA/Dx5-eGFP, coculture, 384-well plate, 144 h, read-out: IC50
[3] = Homo sapiens, Mes-Sa/Dx5 eGFP, 384-well plate, Table S6, read-out: pIC50 (mean) (converted)
[4] = Homo sapiens, MES-SA, 144 h, MES-SA mCherry, coculture, 384-well plate, 144 h, read-out: IC50
[5] = Homo sapiens, MES-SA, Mes-Sa mCherry, 384-well plate, Table S6, read-out: pIC50 (mean) (converted)
[6] = Homo sapiens, MES-SA/B1-mOrange, coculture, 384-well plate, 144 h, read-out: IC50
[7] = Homo sapiens, Mes-Sa/B1 mOrange, 384-well plate, Table S6, read-out: pIC50 (mean) (converted)
[8] = MES-SA mCherry, coculture, 384-well plate, 144 h, read-out: IC50
[9] = MES-SA/Dx5-eGFP, coculture, 384-well plate, 144 h, read-out: IC50
[10] = Mes-Sa/Dx5 eGFP, 384-well plate, Table S6
[11] = Mes-Sa mCherry, 384-well plate, Table S6
[12] = MES-SA/B1-mOrange, coculture, 384-well plate, 144 h, read-out: IC50
[13] = Mes-Sa/B1 mOrange, 384-well plate, Table S6

Molecule | IC50 (MES-SA/Dx5-eGFP; [2]) [µM] | IC50 (MES-SA/Dx5-eGFP; [3]) [µM] | SR (MES-SA/Dx5) (MES-SA/Dx5-eGFP; 384-well plate) | IC50 (MES-SA mCherry; [4]) [µM] | IC50 (MES-SA mCherry; [5]) [µM] | IC50 (MES-SA/B1-mOrange; [6]) [µM] | IC50 (MES-SA/B1-mOrange; [7]) [µM] | SR (MES-SA/B1) (MES-SA/B1-mOrange; 384-well plate) | IC50 (MES-SA mCherry; [8]) [µM] | IC50 (MES-SA/Dx5-eGFP; [9]) [µM] | pIC50 (mean) (MES-SA/Dx5-eGFP; [10]) | pIC50 (mean) (MES-SA mCherry; [11]) | IC50 (MES-SA/B1-mOrange; [12]) [µM] | pIC50 (mean) (MES-SA/B1-mOrange; [13]) | logK′ (H2O/Cl–) [1] | other results
c1ccc(-c2ccnc3c2ccc2c(-c4ccccc4)ccnc23)cc1 [BP, 4,7-diphenyl-1,10-phenanthroline] | 0.01 | 0.00851 | 54.7 | 0.47 | 0.468 | 0.14 | 0.138 | 3.4 |  |  |  |  |  |  |  | 
Clc1ccnc2c1ccc1c(Cl)ccnc12 [DCP, 4,7-dichloro-1,10-phenanthroline] | 0.48 | 0.49 | 6.3 | 3.1 | 3.02 | 4.9 | 4.9 | 0.6 | 3.05 |  |  |  |  |  |  | 
Cc1c(C)c(C)[c-](C)c1C.Clc1ccnc2c1ccc1c(Cl)ccnc12.[Cl-].[Cl-].[Rh+3] [RhCp*DCP, [Rh(III)(η^5-C5Me5)(4,7-dichloro-1,10-phenanthroline)Cl]Cl] |  |  | 5.6 |  |  |  |  | 0.7 |  | 0.75 | 6.12 | 5.38 | 6.38 | 5.20 | 2.85 ± 0.01 ^b | IC50 (MES-SA mCherry; MES-SA mCherry, coculture, 384-well plate, 144 h, listed as [RhCp*(DCP)Cl]Cl, read-out: IC50): 4.2 µM and 4.22 µM
Cc1ccc(C(C)C)cc1.[Cl-].[Cl-].[Ru+2].c1ccc(-c2ccnc3c2ccc2c(-c4ccccc4)ccnc23)cc1 [RuCymBP, [Ru(II)(η^6-p-cymene)(bathophenanthroline)Cl]Cl] |  |  | 0.01 |  |  |  |  | 0.01 | 0.53 | 41 | 4.39 | 6.28 | 55 | 4.26 | 2.31 ± 0.13 | 
Cc1ccc(C(C)C)cc1.Clc1ccnc2c1ccc1c(Cl)ccnc12.[Cl-].[Cl-].[Ru+2] [RuCymDCP, [Ru(II)(η^6-p-cymene)(4,7-dichloro-1,10-phenanthroline)Cl]Cl] |  |  |  |  |  |  |  |  | 65.6 | > 100 |  | 4.18 | > 100 |  | 2.31 ± 0.03 | 
[Rh(III)(η^5-C5Me5)(bathophenanthroline)Cl]Cl [RhCp*BP] |  |  | 6.7 |  |  |  |  | 1.1 |  | 0.23 | 6.63 | 5.81 | 1.37 | 5.86 | 2.98 ± 0.01 | IC50 (MES-SA/Dx5-eGFP; MES-SA/Dx5-eGFP, coculture, 96-well plate, media replaced before measurement, read-out: IC50): 1.77 µM; pIC50 (mean) (MES-SA/Dx5-eGFP; Mes-Sa/Dx5 eGFP, 96-well plate, Table S6): 5.75; SR (MES-SA/Dx5) (MES-SA/Dx5-eGFP; 96-well plate): 1.6; IC50 (MES-SA mCherry; MES-SA mCherry, coculture, 96-well plate, media replaced before measurement, read-out: IC50): 2.9 µM; IC50 (MES-SA mCherry; MES-SA mCherry, coculture, 384-well plate, 144 h, listed as [RhCp*(BP)Cl]Cl, read-out: IC50): 1.56 µM; pIC50 (mean) (MES-SA mCherry; Mes-Sa mCherry, 96-well plate, Table S6): 5.54; IC50 (MES-SA/B1-mOrange; MES-SA/B1-mOrange, coculture, 96-well plate, media replaced before measurement, read-out: IC50): 2.43 µM; pIC50 (mean) (MES-SA/B1-mOrange; Mes-Sa/B1 mOrange, 96-well plate, Table S6): 5.61; SR (MES-SA/B1) (MES-SA/B1-mOrange; 96-well plate): 1.2
